Counter-ions that a name gives are not always drawn.
Columns and labels:
[1] = biological target: T1, FAK (focal adhesion kinase) (Homo sapiens, UniProt Q05397); experiment: Inhibition of FAK (ELISA assay), FAK phosphorylation in cells; type: cell-based; conditions: human cells with FAK amplification
T1 construct: endogenous in cells; host or cells: Calu-6 or HT-29
Procedure: Activated FAK promotes the invasive growth of tumour cells and inhibits anoikis.
The amount of phosphorylated FAK is determined by a specific capture ELISA or an analogous LUMINEX assay. FAK from cell lysates is bound to a 96-well ELISA plate or LUMINEX beads by means of a specific antibody (“capturing”), and the tyrosine phosphorylation is detected using a biotin-labelled anti-phosphotyrosine antibody and a streptavidin-peroxidase conjugate by a chemiluminescence method or by means of a fluorescence-labelled anti-phosphotyrosine antibody.
For determination of the activity of kinase inhibitors, cells are pretreated with increasing concentrations of these compounds for 45 min, and the FAK phosphorylation is then determined. As internal control, a concentration series of a reference inhibitor is measured.

[2] = biological target: PDGFRβ (Homo sapiens, UniProt P09619); experiment: Inhibition of PDGFRβ (flashplate assay); type: biochemical; conditions: flashplate method
Procedure: (§1) The test plates used are 96-well flashplate microtitre plates from Perkin Elmer (USA). The components of the kinase reaction are pipetted into the assay plate. The PDGFRβ kinase is incubated for 3 hr. with radioactively labelled ^33P-ATP in the presence and absence of test substances in a total volume of 100 μl at room temperature (here autophosphorylation of the kinase). The reaction is terminated using 150 μl of a 60 mM EDTA solution. After incubation for a further 30 min at room temperature, the supernatants are removed by suction, and the wells are washed three times with 200 μl of 0.9% NaCl solution each time. The radioactivity is measured using a Topcount scintillation counter (PerkinElmer, USA). IC50 values are calculated using the RS1 computer program.

[3] = biological target: VEGF-2 (Homo sapiens, UniProt P35968); experiment: Inhibition of VEGF-2 (flashplate assay); type: biochemical; conditions: flashplate method
Procedure: as §1, with “384-well” for “96-well”, “VEGF-2” for “PDGFRβ”, “together with biotinylated poly(Glu, Tyr)4:1.” for “(here autophosphorylation of the kinase).”, “25” for “150”, “200” for “60”, “100” for “200”

[4] = biological target: T2, IGF1 receptor (IGF1R) (Homo sapiens, UniProt P08069); experiment: Inhibition of IGF1R (ELISA assay), IGF1-stimulated autophosphorylation in cells; type: cell-based; conditions: human tumour cells stimulated with IGF1, read-out: IC50 IGF (ELISA)
T2 construct: endogenous in cells; host or cells: MCF-7 or Calu-6
Procedure: The stimulation induces an autophosphorylation of tyrosine residues in the cytoplasmatic IGF1R domain, which triggers signal transduction cascades, which result in inhibition of apoptosis and proliferation of the cells.
The amount of phosphorylated IGF1R is determined by a receptor-specific capture ELISA or an analogous LUMINEX assay. The IGF1R from cell lysates is bound to a 96-well ELISA plate or LUMINEX beads by means of a specific antibody (“capturing”), and the tyrosine phosphorylation is detected using a biotin-labelled anti-phosphotyrosine antibody and a streptavidin-peroxidase conjugate by a chemiluminescence method or by means of a fluorescence-labelled anti-phosphotyrosine antibody.
For determination of the activity of kinase inhibitors, cells are pretreated with increasing concentrations of these compounds for 45 min and subsequently stimulated using IGF1 for 5 min. As internal control, the biological activity of the ligand IGF1 is checked, and a concentration series of an IGF1R reference inhibitor is measured.

[5] = biological target: T3, TGFβR1 (Homo sapiens, UniProt P36897); experiment: Inhibition of TGFβR1 (flashplate assay); type: biochemical; conditions: flashplate method
T3 sequence (P36897 34-503): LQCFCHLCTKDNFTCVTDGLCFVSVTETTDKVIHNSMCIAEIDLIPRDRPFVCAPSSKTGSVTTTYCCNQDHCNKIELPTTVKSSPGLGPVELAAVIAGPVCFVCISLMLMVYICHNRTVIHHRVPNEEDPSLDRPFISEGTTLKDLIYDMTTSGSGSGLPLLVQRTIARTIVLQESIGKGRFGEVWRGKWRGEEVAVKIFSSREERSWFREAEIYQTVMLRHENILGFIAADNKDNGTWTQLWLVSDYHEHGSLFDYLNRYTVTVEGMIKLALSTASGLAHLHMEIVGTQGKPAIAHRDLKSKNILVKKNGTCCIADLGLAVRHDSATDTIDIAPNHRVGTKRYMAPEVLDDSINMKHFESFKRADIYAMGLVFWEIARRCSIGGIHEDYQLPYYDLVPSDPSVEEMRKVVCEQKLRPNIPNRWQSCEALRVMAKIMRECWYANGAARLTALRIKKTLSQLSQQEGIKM
Procedure: The test is carried out as described in Example B1b for IGF1R. A biotinylated is added to the TGFβR1 kinase.
The kinase assay is carried out as a 384-well flashplate assay.
The components of the kinase reaction are pipetted into the assay plate. The TGFβR1 kinase is incubated for 45 min with radioactively labelled ^33P-ATP in the presence and absence of test substances together with biotinylated substrate in a total volume of 35 μl. The reaction is terminated using 25 μl of 200 mM EDTA solution, removed by suction after 30 min at room temperature, and the wells are washed with three times with 100 μl of 0.9% NaCl solution each time. The radioactivity is measured using a Topcount scintillation counter (PerkinElmer, USA). IC50 values are calculated using the RS1 computer program.

[6] = biological target: TIE2 (Homo sapiens, UniProt Q02763); experiment: Inhibition of TIE2 (flashplate assay); type: biochemical; conditions: flashplate method
Procedure: B4: inhibition of T1E2 (Flashplate Assay)
as §1, with “384-well” for “96-well”, “TIE2” for “PDGFRβ”, “together with biotinylated poly(Glu, Tyr)4:1.” for “(here autophosphorylation of the kinase).”, “25” for “150”, “200” for “60”, “100” for “200”

[7] = biological target: IGF1R (Homo sapiens, UniProt P08069); experiment: Inhibition of IGF1R (flashplate assay); type: biochemical; conditions: flashplate method
Procedure: as §1, with “The IGF1R” for “The PDGFRβ”, “for 1” for “for 3”, “temperature together with biotinylated poly(Glu, Tyr)4:1.” for “temperature (here autophosphorylation of the kinase).”, “using 25” for “using 150”, “a 200” for “a 60”, “with 100” for “with 200”

T2 sequence (P08069 31-1367): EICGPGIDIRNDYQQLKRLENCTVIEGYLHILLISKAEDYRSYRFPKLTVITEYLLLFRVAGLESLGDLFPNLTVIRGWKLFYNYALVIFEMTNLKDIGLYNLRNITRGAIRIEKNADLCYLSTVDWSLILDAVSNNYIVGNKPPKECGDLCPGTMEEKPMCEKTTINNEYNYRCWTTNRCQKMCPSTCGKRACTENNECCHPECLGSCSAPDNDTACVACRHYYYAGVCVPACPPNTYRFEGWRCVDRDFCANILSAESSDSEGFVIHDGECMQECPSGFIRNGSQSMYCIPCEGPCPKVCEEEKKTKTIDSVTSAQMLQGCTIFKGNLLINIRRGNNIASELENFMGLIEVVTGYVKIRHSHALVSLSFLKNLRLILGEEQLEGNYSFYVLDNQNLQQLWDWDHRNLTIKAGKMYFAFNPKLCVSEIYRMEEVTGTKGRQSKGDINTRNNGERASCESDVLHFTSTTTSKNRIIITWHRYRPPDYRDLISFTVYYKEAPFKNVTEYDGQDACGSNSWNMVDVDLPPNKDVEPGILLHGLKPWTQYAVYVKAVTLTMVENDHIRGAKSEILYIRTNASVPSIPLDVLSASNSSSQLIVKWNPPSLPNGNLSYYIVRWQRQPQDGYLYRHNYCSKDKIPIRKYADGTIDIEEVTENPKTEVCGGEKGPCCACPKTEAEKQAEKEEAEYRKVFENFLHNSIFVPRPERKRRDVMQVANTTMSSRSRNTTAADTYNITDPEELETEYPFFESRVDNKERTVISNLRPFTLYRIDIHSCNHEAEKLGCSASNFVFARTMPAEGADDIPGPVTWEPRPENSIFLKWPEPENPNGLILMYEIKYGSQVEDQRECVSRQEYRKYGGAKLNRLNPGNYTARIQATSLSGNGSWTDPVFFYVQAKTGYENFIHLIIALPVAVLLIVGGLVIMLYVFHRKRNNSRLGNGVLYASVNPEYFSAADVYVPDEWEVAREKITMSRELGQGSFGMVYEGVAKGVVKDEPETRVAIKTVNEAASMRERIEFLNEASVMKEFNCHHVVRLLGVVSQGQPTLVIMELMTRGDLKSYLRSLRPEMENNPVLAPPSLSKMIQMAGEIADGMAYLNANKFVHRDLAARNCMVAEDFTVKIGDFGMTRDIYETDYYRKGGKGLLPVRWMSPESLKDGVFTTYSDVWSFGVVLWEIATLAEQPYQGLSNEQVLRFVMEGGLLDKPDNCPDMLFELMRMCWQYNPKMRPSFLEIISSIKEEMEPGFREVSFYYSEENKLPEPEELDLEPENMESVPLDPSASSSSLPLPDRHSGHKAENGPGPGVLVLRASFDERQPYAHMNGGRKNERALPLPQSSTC
Chain of PDGFRβ (P09619 33-1106, species assumed): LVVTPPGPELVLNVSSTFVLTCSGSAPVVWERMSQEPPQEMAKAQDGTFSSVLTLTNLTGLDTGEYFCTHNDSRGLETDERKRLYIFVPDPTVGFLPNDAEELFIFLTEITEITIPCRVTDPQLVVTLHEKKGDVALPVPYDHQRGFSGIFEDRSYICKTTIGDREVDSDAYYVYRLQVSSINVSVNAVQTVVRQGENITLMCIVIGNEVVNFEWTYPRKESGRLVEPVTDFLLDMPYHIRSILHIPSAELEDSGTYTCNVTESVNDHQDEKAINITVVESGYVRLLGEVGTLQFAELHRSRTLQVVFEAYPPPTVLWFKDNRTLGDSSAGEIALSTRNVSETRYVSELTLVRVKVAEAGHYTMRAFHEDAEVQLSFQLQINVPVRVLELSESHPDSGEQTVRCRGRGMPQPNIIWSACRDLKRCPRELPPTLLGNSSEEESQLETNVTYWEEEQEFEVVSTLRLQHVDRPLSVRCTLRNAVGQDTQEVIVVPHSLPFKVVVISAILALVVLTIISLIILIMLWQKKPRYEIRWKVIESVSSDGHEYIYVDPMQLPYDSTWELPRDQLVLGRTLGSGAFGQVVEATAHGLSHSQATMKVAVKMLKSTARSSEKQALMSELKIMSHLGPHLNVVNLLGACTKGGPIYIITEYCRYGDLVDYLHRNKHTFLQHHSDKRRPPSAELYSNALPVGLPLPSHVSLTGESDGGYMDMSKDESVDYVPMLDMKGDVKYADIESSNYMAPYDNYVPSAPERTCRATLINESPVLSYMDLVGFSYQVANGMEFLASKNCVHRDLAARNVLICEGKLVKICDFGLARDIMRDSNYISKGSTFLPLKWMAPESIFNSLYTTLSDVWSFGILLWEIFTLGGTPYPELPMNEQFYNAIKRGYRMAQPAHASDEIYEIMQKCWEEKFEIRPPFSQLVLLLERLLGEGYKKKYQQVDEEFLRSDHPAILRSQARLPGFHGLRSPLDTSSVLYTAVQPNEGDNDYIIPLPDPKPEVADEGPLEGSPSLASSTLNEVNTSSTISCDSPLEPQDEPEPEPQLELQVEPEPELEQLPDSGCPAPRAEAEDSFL
Chain of TIE2 (Q02763 23-1124, species assumed): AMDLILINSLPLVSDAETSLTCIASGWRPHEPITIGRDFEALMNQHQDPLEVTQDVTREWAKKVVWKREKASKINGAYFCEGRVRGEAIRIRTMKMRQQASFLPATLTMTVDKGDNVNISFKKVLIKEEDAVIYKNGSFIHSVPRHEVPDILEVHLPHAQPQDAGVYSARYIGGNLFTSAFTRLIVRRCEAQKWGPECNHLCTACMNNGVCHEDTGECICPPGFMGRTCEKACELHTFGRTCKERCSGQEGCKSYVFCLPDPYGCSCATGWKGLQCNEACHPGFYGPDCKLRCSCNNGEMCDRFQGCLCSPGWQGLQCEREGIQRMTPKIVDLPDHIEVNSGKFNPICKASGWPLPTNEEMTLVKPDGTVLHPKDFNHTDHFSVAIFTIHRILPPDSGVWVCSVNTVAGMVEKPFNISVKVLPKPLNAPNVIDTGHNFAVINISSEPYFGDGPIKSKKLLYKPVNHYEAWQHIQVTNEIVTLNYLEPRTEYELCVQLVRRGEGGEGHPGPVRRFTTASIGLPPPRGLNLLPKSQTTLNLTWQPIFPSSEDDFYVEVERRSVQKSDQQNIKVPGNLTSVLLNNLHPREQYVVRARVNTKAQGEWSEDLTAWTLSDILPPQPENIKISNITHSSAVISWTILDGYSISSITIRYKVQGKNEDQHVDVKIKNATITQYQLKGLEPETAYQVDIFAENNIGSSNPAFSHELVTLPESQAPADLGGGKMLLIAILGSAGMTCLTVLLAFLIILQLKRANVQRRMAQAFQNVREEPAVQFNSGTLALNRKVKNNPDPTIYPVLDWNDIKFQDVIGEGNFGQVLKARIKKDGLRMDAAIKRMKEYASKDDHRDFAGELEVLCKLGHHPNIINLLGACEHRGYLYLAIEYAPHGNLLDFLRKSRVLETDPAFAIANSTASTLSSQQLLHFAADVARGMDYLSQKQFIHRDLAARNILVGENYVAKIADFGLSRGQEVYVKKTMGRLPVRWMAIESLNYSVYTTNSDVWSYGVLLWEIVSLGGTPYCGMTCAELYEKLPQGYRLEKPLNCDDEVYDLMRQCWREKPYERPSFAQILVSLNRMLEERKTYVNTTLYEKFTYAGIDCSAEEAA
Chain of VEGF-2 (P35968 20-1356): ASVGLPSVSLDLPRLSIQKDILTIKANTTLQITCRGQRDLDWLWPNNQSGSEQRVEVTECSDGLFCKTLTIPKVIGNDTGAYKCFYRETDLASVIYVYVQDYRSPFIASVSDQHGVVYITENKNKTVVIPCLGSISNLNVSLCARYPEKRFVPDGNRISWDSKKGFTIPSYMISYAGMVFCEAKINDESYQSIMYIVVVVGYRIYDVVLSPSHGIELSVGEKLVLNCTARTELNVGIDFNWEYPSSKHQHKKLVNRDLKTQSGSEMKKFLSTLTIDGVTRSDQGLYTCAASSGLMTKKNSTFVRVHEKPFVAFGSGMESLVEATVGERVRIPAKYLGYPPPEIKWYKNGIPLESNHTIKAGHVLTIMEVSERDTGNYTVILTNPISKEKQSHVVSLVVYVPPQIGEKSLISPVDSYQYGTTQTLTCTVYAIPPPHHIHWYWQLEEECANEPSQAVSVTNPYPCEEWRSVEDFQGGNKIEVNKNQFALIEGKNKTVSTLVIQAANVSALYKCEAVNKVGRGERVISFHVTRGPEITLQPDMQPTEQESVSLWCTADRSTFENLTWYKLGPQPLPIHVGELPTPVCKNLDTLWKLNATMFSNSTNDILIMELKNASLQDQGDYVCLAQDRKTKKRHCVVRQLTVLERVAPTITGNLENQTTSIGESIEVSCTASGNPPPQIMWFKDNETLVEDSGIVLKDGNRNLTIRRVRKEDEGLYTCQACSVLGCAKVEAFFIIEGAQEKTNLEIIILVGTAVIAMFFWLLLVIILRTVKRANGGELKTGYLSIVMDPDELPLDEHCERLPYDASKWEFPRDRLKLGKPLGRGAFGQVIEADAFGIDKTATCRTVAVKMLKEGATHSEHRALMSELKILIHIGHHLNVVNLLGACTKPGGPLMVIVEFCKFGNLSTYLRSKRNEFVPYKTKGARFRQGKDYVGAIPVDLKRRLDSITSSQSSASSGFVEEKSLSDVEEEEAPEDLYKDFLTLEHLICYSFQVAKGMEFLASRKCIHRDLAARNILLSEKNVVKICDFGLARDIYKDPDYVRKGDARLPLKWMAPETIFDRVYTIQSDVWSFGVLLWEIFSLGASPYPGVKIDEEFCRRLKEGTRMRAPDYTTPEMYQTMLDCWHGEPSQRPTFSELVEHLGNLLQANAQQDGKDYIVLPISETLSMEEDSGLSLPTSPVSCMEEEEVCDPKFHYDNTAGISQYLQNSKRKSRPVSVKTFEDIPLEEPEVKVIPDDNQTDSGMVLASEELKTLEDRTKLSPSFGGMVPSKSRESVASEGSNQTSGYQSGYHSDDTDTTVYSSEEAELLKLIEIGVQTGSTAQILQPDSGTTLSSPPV
Chain of IGF1R (P08069 31-1367, species assumed): as the sequence (P08069 31-1367) above

Row | SMILES | melting point | IC50 [1] [µM] | IC50 [4] [µM] | IC50 [5] [nM] | also measured
1 | NCC1CC(n2cc(I)c3c(N)ncnc32)C1 (stereo not shown) (as salt: HCl) [Compound 52] | 241 to 242.5 °C | – | – | – | –
2 | C[Si](C)(COc1cccc(-c2cn(C3CC(CN)C3)c3ncnc(N)c23)c1)c1ccccc1 (stereo not shown) (as salt: TFA) [Compound 8] | 172 to 174.5 °C | – | – | – | –
3 | C[Si](C)(C)COc1cccc(-c2cn(C3CC(CN)C3)c3ncnc(N)c23)c1 (stereo not shown) (as salt: TFA) [Compound 9] | 83 to 84 °C | – | – | – | –
4 | NCC1CC(n2cc(-c3cc4ccccc4o3)c3c(N)ncnc32)C1 (stereo not shown) (as salt: TFA) [Compound 37] | 202.5 to 204.5 °C | – | – | – | –
5 | NCC1CC(n2cc(-c3ccco3)c3c(N)ncnc32)C1 (stereo not shown) (as salt: TFA) [Compound 38] | 207.5 to 209 °C | – | – | – | –
6 | NCC1CC(n2cc(-c3cccs3)c3c(N)ncnc32)C1 (stereo not shown) (as salt: TFA) [Compound 41] | 206 to 207.5 °C | – | – | – | –
7 | NCC1CC(n2cc(-c3ccncc3)c3c(N)ncnc32)C1 (stereo not shown) (as salt: TFA) [Compound 43] | > 195 °C (dec.) | – | – | – | –
8 | CS(=O)(=O)Nc1cccc(-c2cn(C3CC(CN)C3)c3ncnc(N)c23)c1 (stereo not shown) [Compound 13] | 82 to 84 °C | 28 | – | – | IC50 [2]: 5800 nM; IC50 [3]: 6500 nM
9 | CC(C)c1cccc(-c2cn(C3CC(CN)C3)c3ncnc(N)c23)c1 (stereo not shown) [Compound 16] | 93 to 94.5 °C | 28.5 | 22 | 1500 | –
10 | NCC1CC(n2cc(-c3cccc(C(F)(F)F)c3)c3c(N)ncnc32)C1 (stereo not shown) [Compound 17] | – | 25 | – | 2700 | –
11 | NCC1CC(n2cc(-c3cccc(OC(F)(F)F)c3)c3c(N)ncnc32)C1 (stereo not shown) [Compound 18] | 88 to 90 °C | 17.5 | 22 | 1000 | –
12 | NCC1CC(n2cc(-c3cccc([N+](=O)[O-])c3)c3c(N)ncnc32)C1 (stereo not shown) [Compound 20] | 53 to 55 °C | 4 | – | 700 | –
13 | CC(=O)Nc1cccc(-c2cn(C3CC(CN)C3)c3ncnc(N)c23)c1 (stereo not shown) [Compound 21] | – | 17 | – | 6500 | –
14 | CN(Cc1ccccc1)c1cccc(-c2cn(C3CC(CN)C3)c3ncnc(N)c23)c1 (stereo not shown) [Compound 26] | 197 to 200 °C | – | 11 | 1100 | IC50 [3]: 2700 nM
15 | NCC1CC(n2cc(-c3ccc4c(c3)n(Cc3ccccc3)c(=O)n4Cc3ccccc3)c3c(N)ncnc32)C1 (stereo not shown) [Compound 33] | 72.5 to 74 °C | 27 | 20 | – | IC50 [2]: 6850 nM; IC50 [6]: 370 nM
16 | NCC1CC(n2cc(-c3ccncc3)c3c(N)ncnc32)C1 (stereo not shown) [Compound 43] | – | – | 27 | 150 | –
17 | NCC1CC(n2cc(-c3cccnc3)c3c(N)ncnc32)C1 (stereo not shown) [Compound 44] | – | – | 13 | 950 | –
18 | NCC1CC(n2cc(-c3ccc4c(c3)OCCO4)c3c(N)ncnc32)C1 (stereo not shown) [Compound 53] | 324 to 325.5 °C | 1.9 | 5.3 | 1600 | IC50 [2]: 1100 nM; IC50 [3]: 1400 nM; IC50 [6]: 2000 nM
19 | Nc1ncnc2c1c(-c1ccc3c(c1)OCCO3)cn2C1CC(CN2CCCC2)C1 (stereo not shown) [Compound 54] | – | 28 | – | – | –
20 | NCC1CC(n2cc(-c3cccc(N(CCCCO)Cc4ccccc4)c3)c3c(N)ncnc32)C1 (stereo not shown) [Compound 61] | – | – | – | – | IC50 [6]: 3900 nM

Further lines, with some results ahead:

Row | melting point | IC50 [1] [µM] | IC50 [4] [µM] | IC50 [5] [nM] | SMILES | also measured
21 | 186.5 to 189 °C | – | – | – | N#Cc1cccc(-c2cn(C3CC(CN)C3)c3ncnc(N)c23)c1 (stereo not shown) (as salt: TFA) [Compound 57] | –
22 | – | 24 | 3.5 | – | NCC1CC(n2cc(-c3ccc4ccn(Cc5ccccc5)c4c3)c3c(N)ncnc32)C1 (stereo not shown) [Compound 55] | IC50 [7]: 1600 nM; IC50 [3]: 190 nM; IC50 [6]: 680 nM
23 | – | 25 | – | 6100 | N#Cc1cccc(-c2cn(C3CC(CN)C3)c3ncnc(N)c23)c1 (stereo not shown) [Compound 57] | –
24 | – | – | – | 1100 | N#Cc1ccc(-c2cn(C3CC(CN)C3)c3ncnc(N)c23)cc1N (stereo not shown) [Compound 58] | IC50 [2]: 430 nM; IC50 [3]: 610 nM
25 | – | 4.1 | – | 8300 | N#Cc1ccc(-c2cn(C3CC(CN)C3)c3ncnc(N)c23)cc1F (stereo not shown) [Compound 59] | IC50 [2]: 620 nM
26 | – | – | – | 530 | NCC1CC(n2cc(-c3cccc(C(N)=O)c3)c3c(N)ncnc32)C1 (stereo not shown) [Compound 60] | –
27 | 156 to 159 °C | 0.63 | – | 55 | NCC1CC(n2cc(-c3ccc4occc4c3)c3c(N)ncnc32)C1 (stereo not shown) [Compound 63] | IC50 [2]: 310 nM; IC50 [3]: 290 nM; IC50 [6]: 1800 nM
28 | – | 0.42 | – | 45 | NCC1CC(n2cc(-c3cccc4occc34)c3c(N)ncnc32)C1 (stereo not shown) [Compound 65] | IC50 [2]: 940 nM; IC50 [3]: 1320 nM; IC50 [6]: 2900 nM
29 | – | 8 | 25 | 39 | NCC1CC(n2cc(-c3cnc4ccccc4c3)c3c(N)ncnc32)C1 (stereo not shown) [Compound 69] | –
30 | – | – | 21 | 5500 | NCC1CC(n2cc(C(Cl)=CCOCc3ccccc3)c3c(N)ncnc32)C1 (stereo not shown) [Compound 71] | –

From patent publication US20100160356A1, “NOVEL CYCLOBUTYL COMPOUNDS AS KINASE INHIBITORS” (priority 2006, published 2010)
